Results on nine compounds are retold here after ChEMBL document CHEMBL1795220, “Antifungal quinazolinones from marine-derived Bacillus cereus and their preparation” (2011).

≈ marks a conversion by molar mass, not a printed value.

This assay relates to Candida albicans. Briefly: Antifungal activity against Candida albicans after 12 hrs by agar dilution method. The class given is functional. On the technique in general: Agar dilution tests growth on a series of plates holding different concentrations.
Regarding `CCCCC(CC)C1NC(=O)c2ccccc2N1` (racemic), the MIC (commonly the least concentration at which growth counts as inhibited) stood at 10.1 µM (≈ 2.49 µg/mL).
`CCCC[C@H](CC)C1NC(=O)c2ccccc2N1` (mixture of isomers) gave an MIC of 5 µM.
Then `CCCCC(CC)c1nc2ccccc2c(=O)[nH]1` (racemic), with 10.2 µM (≈ 2.49 µg/mL); and `CCCC[C@@H](CC)C1NC(=O)c2ccccc2N1` (mixture of isomers), with 2.5 µM.
`Cc1nc2ccccc2c(=O)[nH]1` displayed an MIC of 15.6 µM (≈ 2.5 µg/mL).
In turn, `CC(=O)N1CCN(c2ccc(OCC3COC(Cn4ccnc4)(c4ccc(Cl)cc4Cl)O3)cc2)CC1` (centres undefined) [KETOCONAZOLE] yielded a minimal inhibitory concentration (MIC) of 0.2 µM (≈ 0.106 µg/mL).
In the case of `CCCC[C@H](CC)c1nc2ccccc2c(=O)[nH]1` it was 1.3 µM (≈ 0.318 µg/mL).
In the case of `CCCC[C@@H](CC)c1nc2ccccc2c(=O)[nH]1` it was 2.5 µM (≈ 0.611 µg/mL); in that of `Oc1nc(Cc2ccccc2)nc2ccccc12`, 10.6 µM (≈ 2.5 µg/mL).
